{
  "source": "patent US20240261305A1",
  "about": "(priority 2021, published 2024)",
  "key": {"[1]": {"test": "Stability of CBD at room temperature and in the dark", "assay_type": "physicochemical", "details": "room temperature; for degradation of CBD: 3 months"}, "[2]": {"details": "after oral administration; cited from earlier work"}, "in vivo [3]": {"test": "in vivo", "details": "mouse, po, mice"}, "in vivo [4]": {"test": "in vivo", "details": "rat, po, rats"}, "[5]": {"details": "kinetic detection (oral bioavailability), sesame oil alone"}, "[6]": {"details": "oral bioavailability, administered as an unformulated oil extract"}, "[7]": {"details": "oral bioavailability, formulated (mixture of sesame oil, amaranth oil and squalene)"}},
  "data": [
    {"smiles": "C=C(C)[C@@H]1CCC(C)=C[C@H]1c1c(O)cc(CCCCC)cc1O", "note": "[CBD, cannabidiol]", "values": [
      {"measurement": "degradation of CBD", "setting": "[1]; CBD from ethanolic cannabis extract formulated in a mixture of sesame oil, amaranth and squalene (at least 0.1%)", "value": 3, "unit": "%"},
      {"measurement": "degradation of CBD", "setting": "[1]; CBD in products obtained by ethanolic extraction from cannabis", "value": 8, "unit": "%"},
      {"measurement": "degradation of CBD", "setting": "[1]; CBD in pure form (both amorphous and crystalline)", "value": 11, "unit": "%"},
      {"measurement": "degradation of CBD", "setting": "[1]; pure CBD formulated in a mixture of sesame oil, amaranth and squalene (at least 0.1%)", "value": 4, "unit": "%"},
      {"measurement": "instability compared with unformulated CBD", "setting": "[1]; CBD solubilised in sesame oil or amaranth oil or in squalene alone", "value": "did not show a statistically significant difference"},
      {"measurement": "time to reach peak plasma concentration", "setting": "[2]", "value": "1 to 4", "unit": "h"},
      {"measurement": "bioavailability", "setting": "in vivo [3]; [5]", "value": "25 to 30", "unit": "%"},
      {"measurement": "bioavailability", "setting": "in vivo [3]; [6]", "value": "5 to 6", "unit": "%"},
      {"measurement": "bioavailability", "setting": "in vivo [3]; [7]", "value": "~50", "unit": "%"},
      {"measurement": "bioavailability", "setting": "in vivo [4]; [5]", "value": "25 to 30", "unit": "%"},
      {"measurement": "bioavailability", "setting": "in vivo [4]; [6]", "value": "5 to 6", "unit": "%"},
      {"measurement": "bioavailability", "setting": "in vivo [4]; [7]", "value": "~60", "unit": "%"}
    ]}
  ]
}
